Tests used:
[1] = system: multiple sclerosis; settings: cited from earlier work
[2] = system: Experimental Autoimmune Encephalomyelitis; settings: various animal species; cited from earlier work
[3] = system: LNCs extracted from mice immunized with Poly-YAK (YB106); experiment: Ex-vivo potency assay: immunization with Poly-YAK (YB106), in-vitro stimulation of LNCs, IL-2 ELISA; type: cell-based, mouse; settings: specificity samples as in-vitro stimulators
Description: The present inventors developed an ex-vivo biological potency assay to determine the relative potency of GA based on effecting the first stimulus by immunizing mice in-vivo with Poly-YAK (also referred to as activation), and the second stimulus by in-vitro stimulation (also referred to as stimulation) with GA. The assay is composed of 6 major steps depicted in FIG. 1.
Briefly, mice are immunized with a pre-determined amount of Poly-YAK (YB106), mixed 1:1 with CFA (step 1). Eight to ten days later, the mice are sacrificed and draining lymph nodes are harvested. Lymph node cells (LNCs) are extracted from the lymph nodes and counted (step 2). […] The Level of IL-2 secretion from the cells into the culture media is determined by a commercial IL-2 ELISA (step 4).
In order to determine the relative potency of a tested batch, IL-2 secretion by the LNCs incubated with the tested batch samples is compared to the IL-2 secretion by the LNCs incubated with RS samples (step 5). Parallelism of the RS and tested batch curves and potency of the tested batch are determined accordingly (step 6). […]
Lymph node cells (LNCs) extraction—The primary culture of LNCs was prepared 8 to 10 days following immunization. […] The cells were then collected in 10-20 ml RPMI or AIM-V complete medium and counted by hemocytometer using Erythrosine B (Sigma, cat no. E9259). […]

Substance: L-glutamic acid polymer with L-alanine, L-lysine and L-tyrosine, acetate (salt) [GA]
- total number of enhancing lesions as measured by MRI ([1]; MS patients, 20 mg/day subcutaneous dose): reduce the total number of enhancing lesions
- frequency of relapses ([1]; relapsing-remitting MS clinical trials): reduce the frequency of relapses
- suppression of EAE [2]: suppress Experimental Autoimmune Encephalomyelitis

Substance: MBP peptide (87-99): Myelin Basic Protein peptide 87-99 (BACHEM H-1964), negative control (SRPHLIRLFSRDA; UniProt P02686 87-99, looked up, fragment)
- IL-2 secretion response pattern in comparison to RS [3]: did not induce IL-2 secretion response
